Target: T1, human subtype 5 somatostatin receptor (Homo sapiens, UniProt P35346)
T1 construct: host or cells: CHO cell line, stably transfected; membranes
Test: Binding of 125-I-labeled 11-Tyr somatostatin-14 tracer to membranes of CHO cells expressing SSTR5
Conditions: CHO cell membranes, Ki calculated from IC50 by Cheng-Prussoff equation
Procedure: A CHO cell line stably transfected with a plasmid encoding the human subtype 5 somatostatin receptor (GenBank accession number D16827) was obtained from Euroscreen. Cells were cultured and used for binding and functional assays.
Membranes of these cells were prepared by sonication in the presence of protease inhibitors and subsequent fractionating centrifugation. The protein concentration in the membrane preparation was determined using a commercial kit (BCA kit, Pierce, USA). Membranes were stored at −80° C. until use. After thawing, membranes were diluted in assay buffer (50 mM TRIS-HCl at pH 7.4, 5 mM MgCl2 and 0.20% BSA (bovine serum albumine)) and subjected to dounce homogenization.
For binding studies, 0.1 ml membrane suspension, corresponding to app. 6×10^−15 mol receptor, was incubated for 1 hour at room temperature with 0.05 nM ^125-I-labeled tracer (11-Tyr somatostatin-14, Perkin-Elmer) and either test compounds in varying concentrations or, for the determination of non-specific binding, 0.001 mM non-labeled somatostatin-14 (Sigma-Aldrich, Buchs, Switzerland). The incubation was stopped by filtration through GF/B glassfiber filters (Unifilter, Perkin-Elmer) and washing with ice-cold wash buffer (50 mM Tris-HCl at pH 7.4). The bound radioactivity was measured after application of a scintillation cocktail (Microscint 40, Perkin-Elmer) and expressed as disintegrations per minute (dpm).
The receptor concentration was determined in a prior saturation experiment where a fixed, arbitrary amount of membranes was incubated with a concentration range of radio-labeled tracer. This allows estimating the total number of specific binding sites per amount of protein (i.e. Bmax), typically between 1 and 5 pmol/mg.
The concentration of the test compound required to result in half maximal inhibition of binding of the radio-labeled tracer (IC50) was estimated from a concentration-versus-dpm graph. The binding affinity (Ki) was calculated from the IC50 by applying the Cheng-Prussoff equation for single binding sites.

T1 sequence (P35346 whole entry): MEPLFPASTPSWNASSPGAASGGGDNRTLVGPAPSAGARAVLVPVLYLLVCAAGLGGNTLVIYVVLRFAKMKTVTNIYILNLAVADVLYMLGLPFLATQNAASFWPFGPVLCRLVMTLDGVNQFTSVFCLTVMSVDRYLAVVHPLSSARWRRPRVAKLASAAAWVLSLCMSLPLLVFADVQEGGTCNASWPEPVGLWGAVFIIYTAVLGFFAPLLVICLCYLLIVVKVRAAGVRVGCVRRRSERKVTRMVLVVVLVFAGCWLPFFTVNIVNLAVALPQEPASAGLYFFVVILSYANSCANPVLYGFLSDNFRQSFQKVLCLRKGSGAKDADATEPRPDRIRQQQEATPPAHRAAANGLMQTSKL

| Structure (SMILES) | Ki |
| --- | --- |
| CCOc1cc(CN2CCC(NC(=O)c3cccc(C(N)=O)c3)CC2)ccc1Cl [Example 6] | 126 nM |
| CCOc1cc(CN2CCC(NC(=O)c3cncc(C)c3)CC2)ccc1Cl [Example 30, N-[1-(4-Chloro-3-ethoxy-benzyl)piperidin-4-yl]-5-methyl-nicotinamide] | 38 nM |
| CCOC(=O)c1c(OCC)cc(CN2CCC(NC(=O)c3cncc(C)c3)CC2)cc1OCC [Example 35, N-[1-(3,5-Diethoxy-4-ethoxycarbonyl-benzyl)piperidin-4-yl]-5-methyl-nicotinamide] | 19 nM |
